Test results taken from US20070141637A1, “Marker for fenestrae” (priority 2004, published 2007).

How the values were obtained:
bEND5 and Py4.1 cells = test: Western blotting of candidate proteins in plasma membranes of latrunculin-induced versus control cells; assay type: cell-based, mouse; details: LPM versus CPM, equal amounts of protein
Method: To confirm the findings of the subtractive proteomic analysis, immunoblotting on the relevant fractions was performed with antibodies to candidate proteins. By comparing equal amounts of protein in the two conditions, change in the protein levels of cofilin, alpha-enolase, radixin, moesin, annexin II, and hnRNP K was evaluated (FIG. 9A, 9B).
Methods for inducing fenestrae formation in endothelial cells are described in U.S. Provisional Patent No. 60/627,981, which is hereby incorporated by reference in its entirety. Coverslips and dishes were coated with 1% gelatin (Sigma) solution in PBS for 30 minutes at room temperature. Endothelial cells were seeded overnight at a density equivalent to 1.5×10^6 cells per 100 mm dish. Cultures were induced with Cytochalasin B (Sigma) at 10 μM for 2 hours, with Latrunculin A (Molecular Probes) at 2.5 μM for 3 hours, or with a combination of recombinant mouse 75 ng/ml VEGF (R&D systems) for 6-72 hours and 10 μM Cytochalasin B for 2 hours. Cells were processed for biochemistry or morphology immediately after the end of the induction.
All steps in the procedure were performed on ice or in centrifuges pre-cooled to 4° C. Cells grown on 150 mm dishes were washed twice with PBS containing calcium and magnesium (Invitrogen), and once with coating buffer (20 mM MES, 135 mM NaCl, 0.5 mM CaCl2, 1 mM MgCl2, pH 5.5). […]

Py4.1 cells = test: Subtractive 2D-gel analysis of plasma membranes, latrunculin-induced versus control cells; assay type: cell-based, mouse; details: Py4.1 plasma membranes, Progenesis Software
Method: In one embodiment the method of identifying components of fenestrae comprises the step of Subtractive 2D-gel electrophoresis analysis. Sufficient material was pooled to generate one batch of triplicate gels for vehicle-induced and un-induced Py4.1 cells, and three sets of triplicate gels for untreated, vehicle-induced, and induced bEND5 cells (FIG. 6 and FIG. 13). All gels per cell type were analyzed collectively using ProGenesis® software (Prolific, Inc. Newark, Calif.) to obtain fold differences between the staining intensities of spots in the induced and the uninduced samples and p-values for those differences using the Students t-test (FIG. 7). In the first round of analysis, spots that qualified for one or more of the following criteria were selected: a) fold increase in staining intensity greater than 2 in the induced sample, b) p-value less than 0.05 for any fold increase, c) spot being unique in induced sample. A summary of all the spots selected for mass spectrometry, with their accompanying fold differences and p-values is shown in FIG. 15.
Methods for inducing fenestrae formation in endothelial cells are described in U.S. Provisional Patent No. 60/627,981, which is hereby incorporated by reference in its entirety. Coverslips and dishes were coated with 1% gelatin (Sigma) solution in PBS for 30 minutes at room temperature. […]

## C/C1=C/C(=O)O[C@@H]2C[C@@H](CC[C@H](C)/C=C\C=C\CC1)O[C@@](O)([C@@H]1CSC(=O)N1)C2 [latrunculin, Latrunculin A]
bEND5 and Py4.1 cells
  enrichment of phosphorylated moesin, hnRNP K, cofilin and alpha-enolase in plasma membranes: Enrichment in induced cells is confirmed
Py4.1 cells
  spot 659 intensity, latrunculin-induced versus control samples: 1.772 fold
Py4.1 cells; part of a train of spots (phosphorylation states)
  spot 401 intensity, latrunculin-induced versus control samples: 3.8 fold
